Test results reported in patent US20250186541A1, “DLL3 TARGETING PEPTIDES AND CONSTRUCTS THEREOF” (MARIANA ONCOLOGY INC., priority 2023, published 2025).
Bridge positions count the residues as written; N and C are the ends. Square brackets hold non-standard residues; d marks the D form. Peptide text beside a SMILES is read from it. * marks the point of attachment. DOTA = O=C(O)CN1CCN(CC(=O)O)CCN(CC(=O)*)CCN(CC(=O)O)CC1; 1Nal = N[C@@H](Cc1cccc2ccccc12)C(=O)O; 2Nal = N[C@@H](Cc1ccc2ccccc2c1)C(=O)O; Ala(4-THP) = N[C@@H](CC1CCOCC1)C(=O)O; Gly(4-THP) = N[C@H](C(=O)O)C1CCOCC1; 3Pal = N[C@@H](Cc1cccnc1)C(=O)O; 4Pal = N[C@@H](Cc1ccncc1)C(=O)O; Chg = N[C@H](C(=O)O)C1CCCCC1; Tle = CC(C)(C)[C@H](N)C(=O)O; αMeP = C[C@@]1(C(=O)O)CCCN1; Pip = O=C(O)[C@@H]1CCCCN1

molecular target: T1, human DLL3 (Homo sapiens, UniProt Q9NYJ7); assay: Affinity determination by Surface Plasmon Resonance (SPR), Biacore, 1:1 binding model; conditions: biotinylated human DLL3 on streptavidin chip, 25° C.; NB = nonbinding
T1 construct: biotin (biotinylated)
T1 sequence (Q9NYJ7 27-618): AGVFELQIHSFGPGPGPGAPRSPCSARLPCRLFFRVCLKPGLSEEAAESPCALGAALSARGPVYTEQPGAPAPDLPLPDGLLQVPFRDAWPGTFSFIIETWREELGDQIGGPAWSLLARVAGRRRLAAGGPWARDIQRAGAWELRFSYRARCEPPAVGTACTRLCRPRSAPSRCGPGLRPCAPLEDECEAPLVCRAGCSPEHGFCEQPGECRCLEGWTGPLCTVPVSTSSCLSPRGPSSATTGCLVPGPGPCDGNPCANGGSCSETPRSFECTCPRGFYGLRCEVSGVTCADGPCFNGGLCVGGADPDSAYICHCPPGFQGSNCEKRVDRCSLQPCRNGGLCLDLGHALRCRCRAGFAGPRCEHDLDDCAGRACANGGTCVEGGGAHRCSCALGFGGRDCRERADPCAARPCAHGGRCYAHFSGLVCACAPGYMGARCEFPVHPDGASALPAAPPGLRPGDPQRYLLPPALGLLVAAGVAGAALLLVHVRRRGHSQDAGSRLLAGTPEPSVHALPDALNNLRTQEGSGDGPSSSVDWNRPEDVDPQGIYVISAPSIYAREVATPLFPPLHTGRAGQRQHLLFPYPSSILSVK
Summary of the method: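 SPR with biotinylated human DLL3 captured on a streptavidin chip, with a reference surface subtracted. Samples were injected at several concentrations at 100 μL/min in phosphate buffer with 137 mM NaCl, 2.7 mM KCl, 0.05% P20 and 2% DMSO. Kinetic and affinity constants came from a 1:1 binding fit.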

| Structure (SMILES) | Kd [nM] | SPR KD (nM) |
| --- | --- | --- |
| CC(=O)N[C@H](C)C(=O)N[C@H](CO)C(=O)N[C@@H](CC(=O)O)C(=O)N[C@H]1CSSC[C@@H](C(=O)N2CCC[C@@]2(C)C(=O)N[C@@H](Cc2ccccc2)C(=O)N[C@@H](CC(=O)O)C(=O)N[C@H](CCCCNC(=O)CN2CCN(CC(=O)O)CCN(CC(=O)O)CCN(CC(=O)O)CC2)C(N)=O)NC(=O)[C@H](CC(N)=O)NC(=O)[C@H](Cc2ccc3ccccc3c2)NC(=O)[C@H](Cc2cccnc2)NC(=O)[C@H](C2CCCCC2)NC(=O)[C@H](Cc2cccc3ccccc23)NC1=O [compound 127, Ac-(D-Ala)-(D-Ser)-D-C(3)-(1Nal)-(Chg)-(3Pya)-(2Nal)-N-C(3)-(aMe-P)-F-D-D-Lys(DOTA)-CONH2] (Ac-[dA][dS]DC[1Nal][Chg][3Pal][2Nal]NC[αMeP]FD[dK](DOTA)-NH2; disulfide 4-10) | 0.5 |  |
| CC(=O)N[C@H](C(=O)N[C@@H](CO)C(=O)N[C@@H](CC(=O)O)C(=O)N[C@H]1CSSC[C@@H](C(=O)N2CCC[C@@]2(C)C(=O)N[C@@H](Cc2ccccc2)C(=O)N[C@@H](CC(=O)O)C(=O)N[C@H](CCCCNC(=O)CN2CCN(CC(=O)O)CCN(CC(=O)O)CCN(CC(=O)O)CC2)C(N)=O)NC(=O)[C@H](CC(N)=O)NC(=O)[C@H](Cc2ccc3ccccc3c2)NC(=O)[C@H](CCC(N)=O)NC(=O)[C@H](C(C)(C)C)NC(=O)[C@H](Cc2cccc3ccccc23)NC1=O)C1CCCCC1 [compound 129, Ac-(Chg)-S-D-C(3)-(1Nal)-(TBG)-Q-(2Nal)-N-C(3)-(aMe-P)-F-D-D-Lys(DOTA)-CONH2] (Ac-[Chg]SDC[1Nal][Tle]Q[2Nal]NC[αMeP]FD[dK](DOTA)-NH2; disulfide 4-10) |  | slow kon |
| CC(=O)N[C@H](C(=O)N[C@@H](CO)C(=O)N[C@@H](CC(=O)O)C(=O)N[C@H]1CSSC[C@@H](C(=O)N2CCC[C@@]2(C)C(=O)N[C@@H](Cc2ccccc2)C(=O)N[C@@H](CC(=O)O)C(=O)N[C@H](CCCCNC(=O)CN2CCN(CC(=O)O)CCN(CC(=O)O)CCN(CC(=O)O)CC2)C(N)=O)NC(=O)[C@H](CC(N)=O)NC(=O)[C@H](Cc2ccc3ccccc3c2)NC(=O)[C@H](CCC(N)=O)NC(=O)[C@@H]2CCCCN2C(=O)[C@H](Cc2cccc3ccccc23)NC1=O)C1CCCCC1 [compound 130, Ac-(Chg)-S-D-C(3)-(1Nal)-(PIP)-Q-(2Nal)-N-C(3)-(aMe-P)-F-D-D-Lys(DOTA)-CONH2] (Ac-[Chg]SDC[1Nal][Pip]Q[2Nal]NC[αMeP]FD[dK](DOTA)-NH2; disulfide 4-10) |  | slow kon |
| CC(=O)N[C@H](C(=O)N[C@@H](CO)C(=O)N[C@@H](CC(=O)O)C(=O)N[C@H]1CSSC[C@@H](C(=O)N2CCC[C@@]2(C)C(=O)N[C@@H](Cc2ccccc2)C(=O)N[C@@H](CC(=O)O)C(=O)N[C@H](CCCCNC(=O)CN2CCN(CC(=O)O)CCN(CC(=O)O)CCN(CC(=O)O)CC2)C(N)=O)NC(=O)[C@H](CC(N)=O)NC(=O)[C@H](Cc2ccc3ccccc3c2)NC(=O)[C@H](CCC(N)=O)NC(=O)[C@H](C(C)(C)C)NC(=O)[C@H](Cc2cccc3ccccc23)NC1=O)C1CCCCC1 [compound 131, Ac-(Chg)-S-D-C(3)-(1Nal)-(D-Leu)-Q-(2Nal)-N-C(3)-(aMe-P)-F-D-D-Lys(DOTA)-CONH2] (Ac-[Chg]SDC[1Nal][Tle]Q[2Nal]NC[αMeP]FD[dK](DOTA)-NH2; disulfide 4-10) | 0.95 |  |
| CC(=O)N[C@H](C(=O)N[C@@H](CO)C(=O)N[C@@H](CC(=O)O)C(=O)N[C@H]1CSSC[C@@H](C(=O)N2CCC[C@@]2(C)C(=O)N[C@@H](Cc2ccccc2)C(=O)N[C@@H](CC(=O)O)C(=O)N[C@H](CCCCNC(=O)CN2CCN(CC(=O)O)CCN(CC(=O)O)CCN(CC(=O)O)CC2)C(N)=O)NC(=O)[C@H](CC(N)=O)NC(=O)[C@H](Cc2c[nH]c3ccccc23)NC(=O)[C@H](CC2CCOCC2)NC(=O)[C@H](CC(C)C)NC(=O)[C@H](Cc2cccc3ccccc23)NC1=O)C1CCCCC1 [compound 132, Ac-(Chg)-S-D-C(3)-(1Nal)-L-(THPA)-W-N-C(3)-(aMe-P)-F-D-[D-Lys(DOTA)]-NH2] (Ac-[Chg]SDC[1Nal]L[Ala(4-THP)]WNC[αMeP]FD[dK](DOTA)-NH2; disulfide 4-10) | 0.21 |  |
| CC(=O)N[C@H](C(=O)N[C@@H](CO)C(=O)N[C@@H](CC(=O)O)C(=O)N[C@H]1CSSC[C@@H](C(=O)N2CCC[C@@]2(C)C(=O)N[C@@H](Cc2ccccc2)C(=O)N[C@@H](CC(=O)O)C(=O)N[C@H](CCCCNC(=O)CN2CCN(CC(=O)O)CCN(CC(=O)O)CCN(CC(=O)O)CC2)C(N)=O)NC(=O)[C@H](CC(N)=O)NC(=O)[C@H](Cc2c[nH]c3ccccc23)NC(=O)[C@H](C2CCOCC2)NC(=O)[C@H](CC(C)C)NC(=O)[C@H](Cc2cccc3ccccc23)NC1=O)C1CCCCC1 [compound 133, Ac-(Chg)-S-D-C(3)-(1Nal)-L-(THPG)-W-N-C(3)-(aMe-P)-F-D-[D-Lys(DOTA)]-NH2] (Ac-[Chg]SDC[1Nal]L[Gly(4-THP)]WNC[αMeP]FD[dK](DOTA)-NH2; disulfide 4-10) | > 30 |  |
| CC(=O)N[C@H](C(=O)N[C@@H](CO)C(=O)N[C@@H](CC(=O)O)C(=O)N[C@H]1CSSC[C@@H](C(=O)N2CCC[C@@]2(C)C(=O)N[C@@H](Cc2ccccc2)C(=O)N[C@@H](CC(=O)O)C(=O)N[C@H](CCCCNC(=O)CN2CCN(CC(=O)O)CCN(CC(=O)O)CCN(CC(=O)O)CC2)C(N)=O)NC(=O)[C@H](CC2CCOCC2)NC(=O)[C@H](Cc2c[nH]c3ccccc23)NC(=O)[C@H](CCC(N)=O)NC(=O)[C@H](CC(C)C)NC(=O)[C@H](Cc2cccc3ccccc23)NC1=O)C1CCCCC1 [compound 134, Ac-(Chg)-S-D-C(3)-(1Nal)-L-Q-W-(THPA)-C(3)-(aMe-P)-F-D-[D-Lys(DOTA)]-NH2] (Ac-[Chg]SDC[1Nal]LQW[Ala(4-THP)]C[αMeP]FD[dK](DOTA)-NH2; disulfide 4-10) | 3.52 |  |
| CC(=O)N[C@H](C(=O)N[C@@H](CO)C(=O)N[C@@H](CC(=O)O)C(=O)N[C@H]1CSSC[C@@H](C(=O)N2CCC[C@@]2(C)C(=O)N[C@@H](Cc2ccccc2)C(=O)N[C@@H](CC(=O)O)C(=O)N[C@H](CCCCNC(=O)CN2CCN(CC(=O)O)CCN(CC(=O)O)CCN(CC(=O)O)CC2)C(N)=O)NC(=O)[C@H](C2CCOCC2)NC(=O)[C@H](Cc2c[nH]c3ccccc23)NC(=O)[C@H](CCC(N)=O)NC(=O)[C@H](CC(C)C)NC(=O)[C@H](Cc2cccc3ccccc23)NC1=O)C1CCCCC1 [compound 135, Ac-(Chg)-S-D-C(3)-(1Nal)-L-Q-W-(THPG)-C(3)-(aMe-P)-F-D-[D-Lys(DOTA)]-NH2] (Ac-[Chg]SDC[1Nal]LQW[Gly(4-THP)]C[αMeP]FD[dK](DOTA)-NH2; disulfide 4-10) | > 30 |  |
| CC(=O)N[C@H](C(=O)N[C@@H](CO)C(=O)N[C@@H](CC(=O)O)C(=O)N[C@H]1CSSC[C@@H](C(=O)N2CCC[C@@]2(C)C(=O)N[C@@H](Cc2cccnc2)C(=O)N[C@@H](CC(=O)O)C(=O)N[C@H](CCCCNC(=O)CN2CCN(CC(=O)O)CCN(CC(=O)O)CCN(CC(=O)O)CC2)C(N)=O)NC(=O)[C@H](CC(N)=O)NC(=O)[C@H](Cc2c[nH]c3ccccc23)NC(=O)[C@H](CCC(N)=O)NC(=O)[C@H](CC(C)C)NC(=O)[C@H](Cc2cccc3ccccc23)NC1=O)C1CCCCC1 [compound 136, Ac-(Chg)-S-D-C(3)-(1Nal)-L-Q-W-N-C(3)-(aMe-P)-(3Pya)-D-[D-Lys(DOTA)]-NH2] (Ac-[Chg]SDC[1Nal]LQWNC[αMeP][3Pal]D[dK](DOTA)-NH2; disulfide 4-10) | 21.7 |  |
| CC(=O)N[C@H](C(=O)N[C@@H](CO)C(=O)N[C@@H](CC(=O)O)C(=O)N[C@H]1CSSC[C@@H](C(=O)N2CCC[C@@]2(C)C(=O)N[C@@H](Cc2ccncc2)C(=O)N[C@@H](CC(=O)O)C(=O)N[C@H](CCCCNC(=O)CN2CCN(CC(=O)O)CCN(CC(=O)O)CCN(CC(=O)O)CC2)C(N)=O)NC(=O)[C@H](CC(N)=O)NC(=O)[C@H](Cc2c[nH]c3ccccc23)NC(=O)[C@H](CCC(N)=O)NC(=O)[C@H](CC(C)C)NC(=O)[C@H](Cc2cccc3ccccc23)NC1=O)C1CCCCC1 [compound 137, Ac-(Chg)-S-D-C(3)-(1Nal)-L-Q-W-N-C(3)-(aMe-P)-(4Pya)-D-[D-Lys(DOTA)]-NH2] (Ac-[Chg]SDC[1Nal]LQWNC[αMeP][4Pal]D[dK](DOTA)-NH2; disulfide 4-10) | > 30 |  |
| CC(=O)N[C@H](CO)C(=O)N[C@@H](CC(=O)O)C(=O)N[C@H]1CSSC[C@@H](C(=O)N2CCC[C@@]2(C)C(=O)N[C@@H](Cc2ccccc2)C(=O)N[C@@H](CC(=O)O)C(=O)N[C@H](CCCCNC(=O)CN2CCN(CC(=O)O)CCN(CC(=O)O)CCN(CC(=O)O)CC2)C(N)=O)NC(=O)[C@H](CC(N)=O)NC(=O)[C@H](Cc2c[nH]c3ccccc23)NC(=O)[C@H](CCC(N)=O)NC(=O)[C@H](C2CCCCC2)NC(=O)[C@H](Cc2cccc3ccccc23)NC1=O [compound 138, Ac-(D-Ser)-D-C(3)-(1Nal)-(Chg)-Q-W-N-C(3)-(aMe-P)-F-D-D-Lys(DOTA)-CONH2] (Ac-[dS]DC[1Nal][Chg]QWNC[αMeP]FD[dK](DOTA)-NH2; disulfide 3-9) | 1.05 |  |
